Results taken from article PMC9951879, “Synthesis of New Shogaol Analogues as NRF2 Activators and Evaluation of Their Anti-Inflammatory Activity, Modes of Action and Metabolic Stability” (Antioxidants, 2023).
Like-named read-outs stand apart in the source and are kept apart here.

How the values were obtained:
[1] = system: IL-1β; assay: IL-1β ELISA in LPSEc-stimulated BV-2 cells; type: cell-based, mouse; conditions: LPSEc 200 ng/mL; for IL-1β level: 1 μM; for inhibition at 1 µM: Mus musculus, BV-2, 1 μM, read-out: percentage of IL-1β inhibition
Description: (§1) The anti-inflammatory activity of the STCs was determined in E. coli lipopolysaccharide (LPSEc; Sigma Aldrich, USA)-induced inflammation in NRF2-proficient and NRF2 siRNA-transfected mouse microglial (BV-2) cells. The NRF2 was silenced in BV-2 cells using NRF2 siRNA (Santa Cruz Biotechnology, Dallas, TX, USA) in Opti-MEM transfection medium (Thermo Fisher Scientific, USA) using Lipofectamine^TM LTX reagent with PLUS^TM reagent (Thermo Fisher Scientific, USA) following the manufacturer’s protocol and reported method. The cells (5 × 10^5 cells/well) were allowed to form a monolayer by incubating them for 24 h and then adding LPSEc (200 ng/mL) for 4 h. The STCs (1 µM) were then added and incubated for another 20 h. The nitric oxide (NO) level in cell supernatant was determined using the Griess reagent kit (Thermo Fisher Scientific, USA). The levels of proinflammatory cytokines (IL-1β, IL-6, IFN-γ, and TNF-α) in cell supernatant solutions were determined using commercially available ELISA kits (Abcam, Cambridge, UK). The cell pellets were lysed using Cell Lysis buffer (Thermo Fisher Scientific, Waltham, MA, USA) following the manufacturer’s instructions. The supernatant solution in the wells was replaced with PBS, and cells were detached by scraping, washed with PBS, and centrifuged to collect the cell pellet. The cell pellet was lysed on ice in a cell lysis buffer for half an hour, vortexing at regular intervals. The cell lysate was centrifuged at 15,000 rpm for 15 min at 4 °C. The clear lysate was stored at −80 °C until further use. The protein concentration was determined using Bradford’s assay kit (Thermo Fisher Scientific, USA) following the manufacturer’s instructions. The expression of COX-2, NF-κB p65, NRF2, and HO-1 in cell lysates was determined using commercially available ELISA kits (Abcam, St, Louis, Missouri, USA) following the manufacturer’s protocol. In addition, the thiol content was determined using a thiol quantification assay kit (Abcam, USA).

[2] = molecular target: T1, GSK-3β (Homo sapiens, UniProt P49841); assay: GSK-3β kinase ADP-Glo assay; type: biochemical; conditions: ATP 25 μM, read-out: IC50, GSK-3β enzyme activity
T1 construct: purchased Promega
Description: The effect of STCs on GSK-3β activity was determined using GSK-3β kinase enzyme (Promega, WI, USA) and ADP-Glo^TM kinase assay (Promega, USA) following the manufacturer’s protocol and reported method. The STCs were dissolved in the kinase buffer to prepare different concentrations (10, 1, 0.1, 0.01, and 0.001 μM). One microliter of the test compounds was added to each well (384 well plate), followed by the addition of 2 μL of GSK-3β kinase (1 ng), 2 μL of the GSK-3β substrate (0.4 μg), and 2 μL of the ATP (25 μM), and incubated for 60 min. Then, 5 μL of ADP-Glo^TM reagent was added and incubated further for 40 min. Then 10 μL of kinase detection reagent was added and incubated for 30 min. The luminescence was recorded using a SpectraMax®L microplate reader (Molecular Devices, San Jose, CA, USA). The IC50 (concentration of the test compound required to produce half-maximal […]) from dose-response curves using non-linear regression analysis using GraphPad Prism (9.5.0; San Diego, CA, USA) software.

[3] = Liver microsomal stability, human; type: in vitro ADME; conditions: for Clint / half-life at 1 μM: human liver microsomes, 1 μM (verapamil 0.5 μM)
Description: (§2) The liver microsomes of humans, rats, and mice were purchased from Merck (human, #M0567; rat, #M9066; mouse, #M9441). The metabolic stability of 6-shogaol and STCs (1 μM effective concentration; 5 μL) was mixed with liver microsomes (0.5 mg mL^−1; 445 μL) in a microcentrifuge tube. Verapamil (0.5 μM) was used as the positive control. The microsome and compound mixture were shaken on a plate shaker for 5 min to ensure homogeneity. NADPH (1 mM; 50 μL) was added to the mixture to start the metabolic reaction. The reaction mixture was incubated at 37 °C for 0, 3, 6, 15, 30, 45, and 60 min. The mixture (20 μL) was sampled and quenched with 180 μL of acetonitrile with internal standard (Donepezil 50 ng/mL) to terminate the metabolic reaction at each time point. Ultrapure water (80 μL) was added, and contents in the microcentrifuge tubes were centrifuged at 3800 rpm at 4 °C for 10 min. […] Each set of experiments was repeated three times in human, rat, and mouse liver microsomes. The concentration of the compounds versus time was plotted to determine the elimination rate constant (Kel). The intrinsic clearance (Clint) and half-life (t1/2) were calculated using the following equations.

[4] = system: IL-6; assay: IL-6 ELISA in LPSEc-stimulated BV-2 cells; type: cell-based, mouse; conditions: LPSEc 200 ng/mL; for IL-6 level: 1 μM; for inhibition at 1 µM: Mus musculus, BV-2, 1 μM, read-out: percentage of IL-6 inhibition
Description: as §1

[5] = molecular target: T2, KEAP1-NRF2 interaction (Homo sapiens, UniProt Q14145); assay: KEAP1-Nrf2 inhibitor screening, fluorescence polarisation assay; type: binding; conditions: KEAP1 Kelch domain, read-out: IC50, NRF2-KEAP1 inhibition
T2 construct: purchased BPS Bioscience
Description: The KEAP1-Nrf2 inhibitor screening assay kit (BPS Bioscience, San Diego, California, USA) was used to determine the effect of STCs in inhibiting KEAP1-NRF2 interaction following the manufacturer’s protocol and our reported method. The STC solutions were diluted with the assay buffer, and 5 μL of the STC solutions were incubated at room temperature for 30 min in the peptide mixture containing 0.5 μL NRF2 peptide (1 μM) and 20 μL KEAP1 (15 ng/μL). The fluorescence polarisation (FP) was measured using a microplate reader at λex 485 nm and λem 530 nm. The following equation was used to determine the per cent KEAP1-NRF2 inhibitory effect of the STCs. Keap1−Nrf2 inhbitory activity %=1−Relative FP of STC/Relative FP of postive control×100

[6] = system: NF-κB p65; assay: NF-κB p65 ELISA in LPSEc-stimulated BV-2 cell lysates; type: cell-based, mouse; conditions: LPSEc 200 ng/mL; for NF-κB p65 level: 1 μM; for inhibition at 1 µM: Mus musculus, BV-2, 1 μM, read-out: percent NF-κB inhibition
Description: as §1

[7] = Liver microsomal stability, rat; type: in vitro ADME; conditions: rat liver microsomes, 1 μM (verapamil 0.5 μM)
Description: as §2

[8] = system: COX-2; assay: COX-2 ELISA in LPSEc-stimulated BV-2 cell lysates; type: cell-based, mouse; conditions: LPSEc 200 ng/mL; for COX-2 level: 1 μM; for inhibition at 1 µM: Mus musculus, BV-2, 1 μM, read-out: percentage of COX-2 inhibition
Description: as §1

[9] = system: TNF-α; assay: TNF-α ELISA in LPSEc-stimulated BV-2 cells; type: cell-based, mouse; conditions: LPSEc 200 ng/mL; for inhibition at 1 µM: Mus musculus, BV-2, 1 μM, read-out: percentage of TNF-α inhibition
Description: as §1

[10] = 1 μM, NRF2-proficient BV-2 cells

T2 sequence (Q14145 2-624 limits assumed): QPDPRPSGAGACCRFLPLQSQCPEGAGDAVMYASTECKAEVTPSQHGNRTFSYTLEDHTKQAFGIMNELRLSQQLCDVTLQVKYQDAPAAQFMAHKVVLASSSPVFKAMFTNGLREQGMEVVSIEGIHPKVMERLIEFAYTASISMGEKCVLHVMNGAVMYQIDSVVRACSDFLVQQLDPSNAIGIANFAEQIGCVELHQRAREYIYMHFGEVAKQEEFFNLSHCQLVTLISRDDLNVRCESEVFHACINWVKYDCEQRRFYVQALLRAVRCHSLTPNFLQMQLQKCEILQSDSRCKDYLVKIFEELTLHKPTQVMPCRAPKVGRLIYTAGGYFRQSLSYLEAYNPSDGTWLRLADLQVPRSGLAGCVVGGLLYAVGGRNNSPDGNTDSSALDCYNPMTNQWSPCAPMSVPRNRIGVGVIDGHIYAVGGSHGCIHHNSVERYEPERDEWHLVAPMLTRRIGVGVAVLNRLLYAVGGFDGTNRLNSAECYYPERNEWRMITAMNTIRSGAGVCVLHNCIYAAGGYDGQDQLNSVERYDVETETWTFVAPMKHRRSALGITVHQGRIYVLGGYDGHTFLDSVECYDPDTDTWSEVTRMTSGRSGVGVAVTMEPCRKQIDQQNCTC
T1 sequence (P49841 whole entry): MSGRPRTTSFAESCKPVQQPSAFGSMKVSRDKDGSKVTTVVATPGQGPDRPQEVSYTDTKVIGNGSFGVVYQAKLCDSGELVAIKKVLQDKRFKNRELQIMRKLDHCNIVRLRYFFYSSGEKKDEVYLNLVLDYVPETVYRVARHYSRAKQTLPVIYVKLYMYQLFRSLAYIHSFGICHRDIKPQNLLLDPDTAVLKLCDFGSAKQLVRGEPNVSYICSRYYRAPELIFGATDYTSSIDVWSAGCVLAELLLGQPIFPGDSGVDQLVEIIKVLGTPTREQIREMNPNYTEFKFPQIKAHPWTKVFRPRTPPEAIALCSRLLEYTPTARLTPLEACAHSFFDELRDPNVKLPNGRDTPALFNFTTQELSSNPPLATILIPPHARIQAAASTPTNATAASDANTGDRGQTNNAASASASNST

SMILES	IL-1β level ([1]; NRF2-silenced BV-2 cells) [pg/mL]	inhibition at 1 µM ([1]; NRF2-proficient BV-2 cells) [%]	inhibition at 1 µM ([1]; NRF2-silenced BV-2 cells) [%]	IC50 [2] [nM]	Clint [3] [mL/min/g liver]	half-life at 1 μM [3] [min]	IL-6 level ([4]; NRF2-proficient BV-2 cells) [pg/mL]	IL-6 level ([4]; NRF2-silenced BV-2 cells) [pg/mL]	inhibition at 1 µM ([4]; NRF2-proficient BV-2 cells) [%]	inhibition at 1 µM ([4]; NRF2-silenced BV-2 cells) [%]	IC50 [5] [nM]	NF-κB p65 level ([6]; NRF2-proficient BV-2 cells) [ng/mL]	NF-κB p65 level ([6]; NRF2-silenced BV-2 cells) [ng/mL]	inhibition at 1 µM ([6]; NRF2-proficient BV-2 cells) [%]	inhibition at 1 µM ([6]; NRF2-silenced BV-2 cells) [%]	Clint [7] [mL/min/g liver]	half-life at 1 μM [7] [min]	COX-2 level ([8]; NRF2-silenced BV-2 cells) [ng/mL]	TNF-α level [9, 10] [pg/mL]	TNF-α level ([9]; 1 μM, NRF2-silenced BV-2 cells) [pg/mL]	further results
COc1cc(CCC(=O)/C=C/c2cc(-c3ccccc3)cs2)ccc1O [STC5, (E)-5-(4-Hydroxy-3-methoxyphenyl)-1-(4-phenylthiophen-2-yl)pent-1-en-3-one]	72.50 ± 1.32	71.4	22.3	50 ± 1	5.09 ± 0.98	14.3	212.33 ± 6.11	748.67 ± 8.33	77.1	17.7	40 ± 1	41.5 ± 0.79	86.3 ± 1.03	67.1	37.7	7.22 ± 1.23	10.1	3.48 ± 0.09	850.00 ± 77.90	2581.00 ± 51.00	half-life in liver microsomes, times longer than that of 6-shogaol ([3]; liver microsomes, species not stated, versus 6-shogaol): about 1.5 times; inhibition at 1 µM ([8]; NRF2-proficient BV-2 cells): 76%; inhibition at 1 µM ([8]; NRF2-silenced BV-2 cells): 49.1%; inhibition at 1 µM ([9]; NRF2-proficient BV-2 cells): 70.8%; inhibition at 1 µM ([9]; NRF2-silenced BV-2 cells): 17%
CCCCC/C=C/C(=O)CCc1ccc(O)c(OC)c1 [6-shogaol, reference compound]	88.57 ± 0.55	53.7	5	420 ± 130	7.56 ± 1.24	9.63	435.67 ± 7.77	852.67 ± 5.69	53	6.27	830 ± 100	70.54 ± 5.04	132.17 ± 4.52	44	4.61	11.51 ± 1.37	6.32	6.03 ± 0.21	1734.00 ± 51.00	3113.00 ± 55.34	IL-1β level ([1]; NRF2-proficient BV-2 cells): 43.30 ± 0.62 pg/mL; COX-2 level ([8]; NRF2-proficient BV-2 cells): 4.30 ± 0.10 ng/mL; inhibition at 1 µM ([8]; NRF2-proficient BV-2 cells): 35.5%; inhibition at 1 µM ([8]; NRF2-silenced BV-2 cells): 11.7%; percentage of TNF-α inhibition ([9]; 1 μM, NRF2-silenced BV-2 cells): no inhibition; inhibition at 1 µM ([9]; NRF2-proficient BV-2 cells): 40.4%
COc1cc(CCC(=O)/C=C/c2ccc([N+](=O)[O-])s2)ccc1O [STC8, (E)-5-(4-Hydroxy-3-methoxyphenyl)-1-(5-nitrothiophen-2-yl)pent-1-en-3-one]	77.33 ± 0.93			870 ± 90	6.95 ± 1.52	10.5	431.667 ± 3.06	846.67 ± 11.68			900 ± 50	75.6 ± 5.04	131.57 ± 0.15			10.57 ± 1.48	6.88	4.47 ± 0.15	1751.00 ± 77.90	3130.33 ± 27.47	IL-1β level ([1]; NRF2-proficient BV-2 cells): 39.93 ± 0.74 pg/mL; COX-2 level ([8]; NRF2-proficient BV-2 cells): 4.10 ± 0.10 ng/mL
